Measured values reported in patent publication US8778919B2, “Cyclic anilino—pyridinotriazines” (Janssen Pharmaceutica NV, priority 2005, dated 2014).

Key:
[1] = molecular target: GSK-3β (Homo sapiens, UniProt P49841); test: GSK-3 kinase assay (C1), GSK-3β; type: biochemical; details: 1 μM ATP, read-out: C1 Score β
Summary of the method: (§1)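 Radiometric SPA at room temperature in 25 mM Tris pH 7.4 with 10 mM MgCl2, 1 mM DTT, 5.7 ng/μl GSK-3β or 0.25 ng/μl GSK-3α, 5 μM biotinylated CREB peptide and 1 μM ATP plus ^33P-ATP. Stopped after 1 h; IC50 from dose-response versus no-compound control, reported as pIC50 score bands.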

[2] = system: Chang cells; test: GSK-3 cellular assay (C2): 14C-D-glucose incorporation into glycogen; type: cell-based; details: increase in D-glucose incorporation into glycogen, test concentration of 10^−6 M
Protocol: Test compounds were tested for their ability to increase the incorporation of ^14C-D-glucose into glycogen in living cells. To do this, Chang cells (360,000 cells/well) were cultured in 0.5 ml of MEM Rega 3 medium supplemented with 10% fetal calf serum, 1% L-glutamine and 2% sodium carbonate. After 3 days, cells were washed with 0.5 ml of phosphate-buffered saline and overlayed with 1 ml of serum- and glucose-free DMEM medium. Then, 2 μl of compound in DMSO and 50 μl substrate (3 mM glucose and 0.5 μCi ^14C-D-glucose were added and the cultures were incubated for 90 min. Cells were then extracted with 0.5 ml of 20% KOH for 60 min at 37° C. and the cell lysates were transferred to 10 ml tubes containing 300 μl of 1 mg/ml glycogen as […]. Following the addition of 2 ml ethanol, total glycogen was precipitated overnight at −20° C. and the precipitates were recovered by centrifugation. Precipitates were then resuspended in 1 ml of water and transferred to scintillation counter vials. and the amount of ^14C-D-glucose incorporation into glycogen was measured by scintillation counting. Scores for the compounds according to the invention, were obtained at a test concentration of 10^−6 M. Score 1=10-30% increase, Score 2=30-60% increase, Score 3=60-80% increase and Score 4=>80% increase in D-glucose incorporation.

[3] = molecular target: GSK-3α (Homo sapiens, UniProt P49840); test: GSK-3 kinase assay (C1), GSK-3α; type: biochemical; details: 1 μM ATP, read-out: C1 Score α
Summary of the method: as §1

[4] = molecular target: CDK1/cyclinB (h) (Homo sapiens, UniProt P06493); test: Kinase profiling C3.2 CDK1/cyclinB human; type: biochemical; details: test concentration of 10^−6 M
Summary of the method: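 Radiometric filter-binding assay: human CDK1/cyclinB (5-10 mU) with 0.1 mg/ml histone H1 substrate and [γ-33P]ATP in 8 mM MOPS pH 7.0, 10 mM Mg acetate, 40 min at room temperature. Stopped with phosphoric acid; substrate-bound 33P counted on P30 filtermat by scintillation.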

[5] = molecular target: CDK2/cyclinA (h) (Homo sapiens, UniProt P24941); test: Kinase profiling C3.3 CDK2/cyclinA human; type: biochemical; details: test concentration of 10^−6 M
Summary of the method: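 Human CDK2/cyclinA (5-10 mU) phosphorylates 0.1 mg/ml histone H1 in 8 mM MOPS pH 7.0, EDTA, 10 mM Mg acetate with [γ-33P]ATP, 40 min at room temperature. After phosphoric acid stop, filter-bound 33P counted by scintillation.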

[6] = molecular target: CDK7/cyclinH/MAT1 (h) (Homo sapiens, UniProt P50613); test: Kinase profiling C3.8 CDK7/cyclinH/MAT1 human; type: biochemical; details: CDK7/cyclinH/MAT1, test concentration of 10^−6 M
Summary of the method: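 Human CDK7/cyclinH/MAT1 (5-10 mU) incubated 40 min at room temperature in 8 mM MOPS pH 7.0, 0.2 mM EDTA, 10 mM Mg acetate, 500 μM peptide substrate and [γ-^33P]ATP. Stopped with phosphoric acid; substrate phosphorylation measured by filter binding and scintillation counting.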

[7] = molecular target: CDK2/cyclinE (h) (Homo sapiens, UniProt P24941); test: Kinase profiling C3.4 CDK2/cyclinE human; type: biochemical; details: test concentration of 10^−6 M
Summary of the method: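 Radiometric filter-binding assay: 5-10 mU enzyme with 0.1 mg/ml histone H1 in 8 mM MOPS pH 7.0, 0.2 mM EDTA, 10 mM Mg acetate and [γ-33P]ATP. Incubated 40 min at room temperature, stopped with phosphoric acid. Substrate-bound 33P counted on P30 filtermat.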

[8] = molecular target: CDK3/cyclinE (h) (Homo sapiens, UniProt Q00526); test: Kinase profiling C3.5 CDK3/cyclinE human; type: biochemical; details: test concentration of 10^−6 M
Summary of the method: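 Human CDK3/cyclinE (5-10 mU) phosphorylated 0.1 mg/ml histone H1 in 8 mM MOPS pH 7.0, 0.2 mM EDTA and 10 mM MgAcetate with [γ-33P]ATP. Reaction ran 40 min at room temperature and was stopped with phosphoric acid. Substrate-bound radioactivity was captured on P30 filtermat and measured by scintillation counting.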

[9] = molecular target: CDK5/p35 human (Homo sapiens, UniProt Q00535); test: Kinase profiling C3.6 CDK5/p35 human; type: biochemical; details: CDK5/p35, test concentration of 10^−6 M
Summary of the method: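 Radiometric filter-binding assay: human CDK5/p35 (5-10 mU) with 0.1 mg/ml histone H1 substrate in 8 mM MOPS pH 7.0, 0.2 mM EDTA, 10 mM Mg acetate and [γ-33P]ATP. Incubated 40 min at room temperature, stopped with phosphoric acid. Substrate 33P incorporation counted on P30 filtermat by scintillation.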

[10] = molecular target: T1, Aurora-A (h) (Homo sapiens, UniProt O14965); test: Kinase profiling C3.1 Aurora-A human; type: biochemical; details: test concentration of 10^−6 M
T1 sequence (O14965 1-403): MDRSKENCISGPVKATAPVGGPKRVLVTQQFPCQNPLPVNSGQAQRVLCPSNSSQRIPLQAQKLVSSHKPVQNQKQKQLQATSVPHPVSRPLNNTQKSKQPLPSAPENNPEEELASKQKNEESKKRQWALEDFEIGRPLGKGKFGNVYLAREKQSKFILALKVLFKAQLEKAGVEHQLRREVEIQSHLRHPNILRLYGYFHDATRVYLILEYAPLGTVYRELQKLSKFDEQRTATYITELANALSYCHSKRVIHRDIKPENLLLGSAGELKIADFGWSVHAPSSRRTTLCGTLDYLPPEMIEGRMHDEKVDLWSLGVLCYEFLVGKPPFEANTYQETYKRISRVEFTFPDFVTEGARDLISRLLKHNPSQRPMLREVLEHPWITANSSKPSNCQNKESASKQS
Protocol: (§2) The in vitro inhibition of a panel of kinases was assessed using either the glass-fiber filter technology as described by Davies, S. P. et al., Biochem J. (2000), 351; p. 95-105. In the glass-fiber filter technology the activity of the kinase of interest is measured using an appropriate substrate that is incubated with the aforementioned kinase protein in the presence of (^33P) radiolabeled ATP. (^33P) Phosporylation of the substrate is subsequently measured as radioactivity bound on a glassfiber-filter.
(§3) All kinases are pre-diluted to a 10× working concentration prior to addition into the assay. The composition of the dilution buffer for each kinase is detailed below.
(§4) All substrates are dissolved and diluted to working stocks in de-ionised water, apart from histone H1 that is stored in 10× working stock in 20 mM MOPS pH 7.4.
(§5) In a final reaction volume of 25 μl, Aurora-A (h) (5-10 mU) is incubated with 8 mM MOPS pH 7.0, 0.2 mM EDTA, 200 μM LRRASLG (Kemptide), 10 mM MgAcetate and [γ-^33P-ATP] (specific activity approx. 500 cpm/pmol, concentration as required). The reaction is initiated by the addition of the MgATP mix. After incubation for 40 minutes at room temperature, the reaction is stopped by the addition of 5 μl of a 3% phosphoric acid solution. 10 μl of the reaction is then spotted onto a P30 filtermat and washed three times for 5 minutes in 50 mM phosphoric acid and once in methanol prior to drying and scintillation counting.

[11] = molecular target: cSRC (h) (Homo sapiens, UniProt P12931); test: Kinase profiling C3.9 cSRC human; type: biochemical; details: test concentration of 10^−6 M
Protocol: as §2, §3, §4
In a final reaction volume of 25 μl, cSRC (h) (5-10 mU) is incubated with 8 mM MOPS pH 7.0, 0.2 mM EDTA, 250 μM KVEKIGEGTYGVVYK (Cdc2 peptide), 10 mM MgAcetate and [γ-^33P-ATP] (specific activity approx. 500 cpm/pmol, concentration as required). The reaction is initiated by the addition of the MgATP mix. After incubation for 40 minutes at room temperature, the reaction is stopped by the addition of 5 μl of a 3% phosphoric acid solution.
10 μl of the reaction is then spotted onto a P30 filtermat and washed three times for 5 minutes in 75 mM phosphoric acid and once in methanol prior to drying and scintillation counting.

[12] = molecular target: Yes (h) (Homo sapiens, UniProt P07947); test: Kinase profiling C3.10 Yes human; type: biochemical; details: test concentration of 10^−6 M
Protocol: as §2, §3, §4
as §5, with “μl, Yes” for “μl, Aurora-A”, “EDTA, 0.1 mg/ml poly(Glu, Tyr) 4:1,” for “EDTA, 200 μM LRRASLG (Kemptide),”, “a Filtermat A” for “a P30 filtermat”, “in 75” for “in 50”

Sequence of GSK-3α (P49840 whole entry, species assumed): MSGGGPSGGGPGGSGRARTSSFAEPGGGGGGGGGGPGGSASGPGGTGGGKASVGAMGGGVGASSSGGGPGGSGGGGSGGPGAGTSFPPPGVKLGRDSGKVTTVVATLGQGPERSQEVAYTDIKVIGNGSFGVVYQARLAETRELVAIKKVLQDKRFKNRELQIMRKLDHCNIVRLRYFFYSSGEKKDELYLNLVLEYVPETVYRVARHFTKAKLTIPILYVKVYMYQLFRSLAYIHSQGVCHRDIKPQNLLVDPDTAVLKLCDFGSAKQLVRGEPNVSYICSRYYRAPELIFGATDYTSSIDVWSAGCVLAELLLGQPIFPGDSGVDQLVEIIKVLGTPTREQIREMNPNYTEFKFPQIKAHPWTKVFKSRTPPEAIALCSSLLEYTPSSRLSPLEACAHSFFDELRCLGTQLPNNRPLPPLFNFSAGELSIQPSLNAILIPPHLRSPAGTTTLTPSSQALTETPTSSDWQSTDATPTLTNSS
Sequence of CDK5/p35 human (Q00535 whole entry): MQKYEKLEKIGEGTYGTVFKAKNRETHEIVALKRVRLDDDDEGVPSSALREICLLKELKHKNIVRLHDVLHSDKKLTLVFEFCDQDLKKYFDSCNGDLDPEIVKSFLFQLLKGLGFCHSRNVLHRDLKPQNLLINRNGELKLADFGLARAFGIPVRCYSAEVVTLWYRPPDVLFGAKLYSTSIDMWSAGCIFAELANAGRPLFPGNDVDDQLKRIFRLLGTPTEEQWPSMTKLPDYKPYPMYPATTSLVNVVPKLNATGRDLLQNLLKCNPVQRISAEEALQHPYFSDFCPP
Sequence of CDK5/p35 human (Q15078 whole entry partner): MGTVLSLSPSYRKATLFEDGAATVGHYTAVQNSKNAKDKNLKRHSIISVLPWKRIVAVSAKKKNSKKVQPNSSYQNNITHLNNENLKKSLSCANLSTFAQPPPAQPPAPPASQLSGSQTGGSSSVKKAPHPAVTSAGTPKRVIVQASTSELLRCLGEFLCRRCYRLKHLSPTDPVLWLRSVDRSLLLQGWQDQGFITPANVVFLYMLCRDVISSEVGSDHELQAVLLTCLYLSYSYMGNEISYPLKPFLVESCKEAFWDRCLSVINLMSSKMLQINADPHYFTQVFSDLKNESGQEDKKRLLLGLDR
Sequence of GSK-3β (P49841 whole entry, species assumed): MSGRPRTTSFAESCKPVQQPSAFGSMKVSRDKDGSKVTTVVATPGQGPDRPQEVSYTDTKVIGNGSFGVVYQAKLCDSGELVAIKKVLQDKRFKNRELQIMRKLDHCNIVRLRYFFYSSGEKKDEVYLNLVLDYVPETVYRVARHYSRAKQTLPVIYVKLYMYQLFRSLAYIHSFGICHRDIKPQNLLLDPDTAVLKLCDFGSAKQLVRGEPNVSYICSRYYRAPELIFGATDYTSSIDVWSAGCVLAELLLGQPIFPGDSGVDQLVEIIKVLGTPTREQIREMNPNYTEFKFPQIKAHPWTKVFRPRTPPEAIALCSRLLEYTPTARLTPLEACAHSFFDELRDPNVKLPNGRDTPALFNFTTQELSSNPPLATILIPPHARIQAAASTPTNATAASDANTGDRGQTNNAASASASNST
Sequence of CDK1/cyclinB (h) (P06493 whole entry): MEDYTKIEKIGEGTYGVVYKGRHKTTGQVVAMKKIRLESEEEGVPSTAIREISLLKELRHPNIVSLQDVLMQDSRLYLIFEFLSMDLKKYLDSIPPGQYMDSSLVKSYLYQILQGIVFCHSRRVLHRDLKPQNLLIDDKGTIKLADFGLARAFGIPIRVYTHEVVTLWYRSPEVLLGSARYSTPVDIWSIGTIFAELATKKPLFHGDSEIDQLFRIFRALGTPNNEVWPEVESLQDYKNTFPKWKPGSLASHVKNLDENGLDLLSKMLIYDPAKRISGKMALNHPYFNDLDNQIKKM
Sequence of CDK1/cyclinB (h) (P14635 whole entry partner): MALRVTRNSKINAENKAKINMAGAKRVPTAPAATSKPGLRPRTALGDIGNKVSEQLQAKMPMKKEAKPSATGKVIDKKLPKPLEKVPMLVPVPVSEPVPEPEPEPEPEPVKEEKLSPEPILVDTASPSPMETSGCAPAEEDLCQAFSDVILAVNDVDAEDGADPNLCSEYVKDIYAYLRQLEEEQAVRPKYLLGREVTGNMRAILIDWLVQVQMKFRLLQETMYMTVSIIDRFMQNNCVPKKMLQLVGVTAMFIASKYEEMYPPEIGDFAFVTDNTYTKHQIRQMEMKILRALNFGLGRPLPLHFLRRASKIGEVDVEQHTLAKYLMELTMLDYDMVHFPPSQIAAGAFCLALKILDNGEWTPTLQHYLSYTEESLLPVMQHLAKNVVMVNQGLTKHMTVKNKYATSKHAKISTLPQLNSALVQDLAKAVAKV
Sequence of CDK7/cyclinH/MAT1 (h) (P50613 whole entry): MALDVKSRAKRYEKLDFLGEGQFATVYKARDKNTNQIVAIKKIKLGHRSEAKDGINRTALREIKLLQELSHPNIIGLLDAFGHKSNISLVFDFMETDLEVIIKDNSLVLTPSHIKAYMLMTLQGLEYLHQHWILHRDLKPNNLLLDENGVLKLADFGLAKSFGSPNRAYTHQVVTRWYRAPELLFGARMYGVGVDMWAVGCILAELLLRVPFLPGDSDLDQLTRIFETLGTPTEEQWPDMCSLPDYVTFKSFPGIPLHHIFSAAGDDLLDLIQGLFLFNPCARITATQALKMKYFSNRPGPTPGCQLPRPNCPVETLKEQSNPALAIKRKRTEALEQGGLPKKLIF
Sequence of CDK7/cyclinH/MAT1 (h) (P51946 whole entry partner): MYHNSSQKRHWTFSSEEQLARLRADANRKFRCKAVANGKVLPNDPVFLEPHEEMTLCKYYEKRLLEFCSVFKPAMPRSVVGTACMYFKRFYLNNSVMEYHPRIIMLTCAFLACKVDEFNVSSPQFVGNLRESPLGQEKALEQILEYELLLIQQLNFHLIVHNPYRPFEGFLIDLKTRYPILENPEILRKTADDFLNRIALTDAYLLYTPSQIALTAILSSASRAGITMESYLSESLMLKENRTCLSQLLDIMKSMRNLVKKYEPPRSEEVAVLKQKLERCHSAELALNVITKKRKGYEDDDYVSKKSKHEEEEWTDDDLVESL
Sequence of CDK7/cyclinH/MAT1 (h) (P51948 whole entry partner): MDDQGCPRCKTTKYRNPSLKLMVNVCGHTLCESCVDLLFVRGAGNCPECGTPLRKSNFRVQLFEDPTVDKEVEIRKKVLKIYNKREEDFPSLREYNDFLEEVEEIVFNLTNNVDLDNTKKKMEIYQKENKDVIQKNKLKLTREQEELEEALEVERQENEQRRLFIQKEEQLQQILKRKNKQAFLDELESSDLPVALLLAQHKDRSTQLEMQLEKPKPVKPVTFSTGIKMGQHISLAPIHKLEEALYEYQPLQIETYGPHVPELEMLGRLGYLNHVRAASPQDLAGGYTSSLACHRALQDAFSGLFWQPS
Sequence of cSRC (h) (P12931 whole entry): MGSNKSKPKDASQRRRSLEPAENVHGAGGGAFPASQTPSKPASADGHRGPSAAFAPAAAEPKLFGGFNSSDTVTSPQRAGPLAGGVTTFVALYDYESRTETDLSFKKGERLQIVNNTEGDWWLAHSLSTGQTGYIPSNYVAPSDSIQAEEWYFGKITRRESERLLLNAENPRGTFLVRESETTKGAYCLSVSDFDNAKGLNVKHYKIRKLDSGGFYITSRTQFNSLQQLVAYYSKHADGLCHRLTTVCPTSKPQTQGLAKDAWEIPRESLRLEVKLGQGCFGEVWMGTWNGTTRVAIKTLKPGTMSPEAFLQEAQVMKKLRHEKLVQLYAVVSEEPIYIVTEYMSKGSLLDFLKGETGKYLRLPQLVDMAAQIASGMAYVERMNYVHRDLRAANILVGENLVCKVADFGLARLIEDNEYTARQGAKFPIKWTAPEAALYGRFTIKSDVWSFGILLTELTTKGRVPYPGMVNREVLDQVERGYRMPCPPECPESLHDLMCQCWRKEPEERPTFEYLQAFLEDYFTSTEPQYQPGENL
Sequence of Yes (h) (P07947 whole entry): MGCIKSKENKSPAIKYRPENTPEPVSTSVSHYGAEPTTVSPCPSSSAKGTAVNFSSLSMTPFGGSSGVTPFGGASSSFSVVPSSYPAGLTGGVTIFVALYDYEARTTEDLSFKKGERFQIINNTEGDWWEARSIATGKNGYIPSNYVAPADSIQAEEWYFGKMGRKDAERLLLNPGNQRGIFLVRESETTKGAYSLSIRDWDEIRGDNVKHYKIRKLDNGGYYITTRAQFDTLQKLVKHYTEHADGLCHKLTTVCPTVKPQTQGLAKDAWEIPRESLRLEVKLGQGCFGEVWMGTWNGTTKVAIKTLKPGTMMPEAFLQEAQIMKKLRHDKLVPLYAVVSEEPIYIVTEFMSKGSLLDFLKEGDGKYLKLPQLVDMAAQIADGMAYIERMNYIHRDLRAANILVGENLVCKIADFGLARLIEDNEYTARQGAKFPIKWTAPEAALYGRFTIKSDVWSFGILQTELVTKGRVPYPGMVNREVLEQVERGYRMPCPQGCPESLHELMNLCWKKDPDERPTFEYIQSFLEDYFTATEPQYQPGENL

SMILES | IC50 [1] [nM] | C2 Score [2] | IC50 [3] [nM] | C3.2 score [4] | C3.3 score [5] | C3.8 score [6] | C3.4 score [7] | C3.5 score [8] | C3.6 score [9] | C3.1 score [10] | C3.9 score [11] | C3.10 score [12]
CN1CC(=O)NCCNc2cc(ccn2)-c2ncnc(n2)Nc2cccc(c2)C1 [Compound 4] | 10 to 100 | 4 (Score 4=>80% increase in D-glucose incorporation) | 10 to 100 |  |  |  |  |  |  |  |  | 
CN1CC(=O)NCCCNc2cc(ccn2)-c2ncnc(n2)Nc2cccc(c2)C1 [Compound 5] | 10 to 100 | 4 (Score 4=>80% increase in D-glucose incorporation) | 10 to 100 |  |  |  |  |  |  |  |  | 
O=C1CN2CCN(CC2)Cc2cccc(c2)Nc2ncnc(n2)-c2cccc(c2)CCCN1 [Compound 52] |  | 4 (Score 4=>80% increase in D-glucose incorporation) | < 10 | 4 (Score 4 = >80% inhibition) | 4 (Score 4 = >80% inhibition) | 1 (Score 1 = 10-30% inhibition) | 4 (Score 4 = >80% inhibition) | 2 (Score 2 = 30-60% inhibition) | 3 (Score 3 = 60-80% inhibition) |  |  | 
O=C1CNCc2cccc(c2)Nc2ncnc(n2)-c2cncc(c2)CCCN1 [Compound 83] |  | 4 (Score 4=>80% increase in D-glucose incorporation) | 10 to 100 |  | 2 (Score 2 = 30-60% inhibition) |  |  |  |  | 2 (Score 2 = 30-60% inhibition) | 2 (Score 2 = 30-60% inhibition) | 2 (Score 2 = 30-60% inhibition)
O=C1CN2CCN(CC2)Cc2cccc(c2)Nc2ncnc(n2)-c2cncc(c2)CCCN1 [Compound 84] |  | 3 (Score 3=60-80% increase) | < 10 | 3 (Score 3 = 60-80% inhibition) | 2 (Score 2 = 30-60% inhibition) | 1 (Score 1 = 10-30% inhibition) | 3 (Score 3 = 60-80% inhibition) | 2 (Score 2 = 30-60% inhibition) | 2 (Score 2 = 30-60% inhibition) |  |  | 
